# Measured values as given in PMC11801715, “Activating PKC-ε induces HIV expression with improved tolerability” (PLOS Pathogens, 2025).
# Values joined by “and” are separate entries in the source; they are usually repeats but may differ in a detail not shown here. Equal values may be shown once. Read-outs that look alike come from different tables or passages of the source.
# How the values were obtained:
# PBMCs = assay: Cytokine induction in vitro in PBMC culture supernatants; format: cell-based, human; conditions: 24 hours
# Procedure: Culture supernatants were analyzed for induction of several cytokines as shown in S3 Table, using a 10-plex MSD (Meso Scale Discovery) assay following manufacturer’s instructions. MSD Workbench 4.0 software was used for data analysis and 4-parameter logistic curve fit model was utilized to determine values of experimental samples from standard curves. Values for each cytokine (pg/mL) for a given concentration was calculated as the geometric mean of all triplicate values combined from all 5 donors.
# platelet-rich plasma = assay: Platelet aggregation assay (light transmittance aggregometry); format: cell-based, human
# Procedure: Given that C-232A induced DIC in rats and monkeys, we tested whether C-232A could directly induce platelet activation and downstream aggregation. […] Adenosine diphosphate, a known platelet agonist, was used as a positive control (S7A Fig).
# Aggregation of platelets was assessed using light transmittance aggregometry using standard methods.
# (A) Assay principle for platelet aggregation assay.
# [1] = system: latent HIV in total CD4+ T cells; assay: microbe, parasite or virus in culture; format: cell-based, HIV-1; conditions: for EC50: Human immunodeficiency virus 1, CD4+ T
# Procedure: Peripheral blood mononuclear cells and CD4^+ T cells used for evaluating PKC agonist and inhibitor molecules were isolated from leukopaks of selected participants as described previously. Isolated CD4^+ T cells (5×10^6 cells/well) were added to 24-well tissue culture plates in 2.5 mL of RPMI medium containing 100 nM each of elvitegravir and efavirenz. Cells were stimulated with DMSO (vehicle control) or the indicated concentrations of PKC agonist molecules. Cells were pretreated with PKC isoform inhibitors (Selleck Chemicals) for 1 hour before addition of PKC agonist at indicated concentrations and maintained at 37 °C, 5% CO2 for 3 days. Cell supernatants from each well were analyzed using the Cobas […] system for quantification of HIV-1 RNA using the HIV-1 test v2.0 kit (Roche Diagnostics).
# Plasma PK in rats = format: in vivo, rat; conditions: slow IV infusion
# Procedure: Wild-type male Sprague Dawley (Hsd: Sprague Dawley SD) rats (8–15 weeks old) were sourced from the Covance stock colony for conduct of in vivo studies at Covance Laboratories Inc. (Madison, Wisconsin, USA). Rats were administered a single dose of vehicle control (n = 3), or 0.1, 0.3, 1, or 3 mg/kg C-232A (n = 6), or 10 mg/kg C-233 by intravenous infusion over 30 minutes. Blood samples were collected through 24 hours postdose. Samples for PK measurement of C-232A concentration were processed to plasma and shipped to Gilead Sciences (Foster City, California, USA). Samples were analyzed at Covance Laboratories for hematology and clinical chemistry panels. At unscheduled necropsy (3 mg/kg C-232A), tissues were preserved in 10% neutral-buffered formalin, embedded in paraffin, mounted on slides, and stained with hematoxylin and eosin. Tissues were then evaluated independently (Experimental Pathology Laboratories, Inc).
# Rat and rhesus plasma samples (20 µL aliquot of each) were treated with 100 µL acetonitrile containing a generic internal small-molecule standard. […] The descriptive PK parameters were analyzed using noncompartmental analysis with Phoenix WinNonlin software (version 8.2, Certara USA, Inc.). The area under the plasma concentration–time curve (AUClast) values were calculated using the linear trapezoid method.
# PKC-ε = biological target: T1, PKC-ε (Homo sapiens, UniProt Q02156); assay: PKC isoform translocation in A549-tGFP cells; format: cell-based; set-up: host or cells: A549; conditions: for EC50: A549-tGFP cells, 60 minutes; for ε selectivity, PKC-ε: EC50 of PKC-ε divided by EC50 of PKC-ε
# T1 sequence (Q02156 1-737): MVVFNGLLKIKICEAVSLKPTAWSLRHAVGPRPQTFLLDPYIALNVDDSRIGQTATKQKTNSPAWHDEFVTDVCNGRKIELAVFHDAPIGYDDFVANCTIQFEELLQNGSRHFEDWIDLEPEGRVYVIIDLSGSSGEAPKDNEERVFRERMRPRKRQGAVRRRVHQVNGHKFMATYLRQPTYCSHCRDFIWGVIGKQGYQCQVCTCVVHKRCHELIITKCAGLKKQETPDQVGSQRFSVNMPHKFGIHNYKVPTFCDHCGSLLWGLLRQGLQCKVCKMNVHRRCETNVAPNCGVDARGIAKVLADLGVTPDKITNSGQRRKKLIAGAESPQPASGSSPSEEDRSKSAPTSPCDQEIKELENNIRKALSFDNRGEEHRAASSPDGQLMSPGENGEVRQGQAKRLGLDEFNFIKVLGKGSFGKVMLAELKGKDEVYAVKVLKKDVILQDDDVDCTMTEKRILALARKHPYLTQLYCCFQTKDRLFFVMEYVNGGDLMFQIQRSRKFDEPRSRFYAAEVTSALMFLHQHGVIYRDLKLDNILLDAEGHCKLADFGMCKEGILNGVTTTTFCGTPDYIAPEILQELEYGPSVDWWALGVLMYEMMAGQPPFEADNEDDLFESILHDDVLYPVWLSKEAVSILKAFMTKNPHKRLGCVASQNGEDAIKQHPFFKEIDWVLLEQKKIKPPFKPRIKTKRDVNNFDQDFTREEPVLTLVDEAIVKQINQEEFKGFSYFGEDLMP
# Procedure: Using these findings we embarked on new designs for DAG-lactones with additional substituents from the ester moiety in combination with a few olefin substituents. A description of this effort is reported elsewhere.
# Cellular translocation of PKC isoforms upon activation was determined in 8 A549 cell lines, each expressing a single PKC isoform fused to tGFP (PhenoVista Biosciences). Cells were plated in 384-well plates (80 μL/well) at 10^5 cells/mL in RPMI with 10% FBS and rested overnight. PKC agonist(s) were serially diluted at 1:3 steps in DMSO and added to the cells. After 60 minutes in an incubator at 37 °C, 5% CO2, cells were stained with Hoechst-33342 and fixed with 2% paraformaldehyde for 30 minutes at 4 °C. Cells were then stained with wheat germ agglutinin conjugated to AlexaFluor647 (WGA-647) for 10 minutes at 4 °C, washed to remove excess dye and imaged with Cellomics Array Scan (Thermo Fisher) at room temperature (RT). Images were analyzed using Cellomics automated image analysis algorithm. Plasma membrane translocation was quantified using the ratio between the average fluorescence in the areas at the cell edge defined by WGA-647 and the cytoplasm region.
compound,measurement,setting,value
Cc1ccc(C#Cc2ccc(C(=O)OCC3(CO)Cc4c(-c5ccccc5)ccnc4O3)cc2)cc1 (stereo not shown) [C-233],GM-CSF in PBMC culture supernatant,PBMCs; 156 nM,14 pg/mL
same,IFN-γ in PBMC culture supernatant,PBMCs; 156 nM,215 pg/mL
same,IL-1b in PBMC culture supernatant,PBMCs; 156 nM,42 pg/mL
same,IL-2 in PBMC culture supernatant,PBMCs; 156 nM,10 pg/mL
same,IL-4 in PBMC culture supernatant,PBMCs; 156 nM,0.3 pg/mL
same,IL-6 in PBMC culture supernatant,PBMCs; 156 nM,40 pg/mL
same,IL-8 in PBMC culture supernatant,PBMCs; 156 nM,"36,739 pg/mL"
same,IL-10 in PBMC culture supernatant,PBMCs; 156 nM,4 pg/mL
same,IL-12p70 in PBMC culture supernatant,PBMCs; 156 nM,5 pg/mL
same,TNF-α in PBMC culture supernatant,PBMCs; 156 nM,308 pg/mL
same,GM-CSF in PBMC culture supernatant,PBMCs; 625 nM,30 pg/mL
same,IFN-γ in PBMC culture supernatant,PBMCs; 625 nM,135 pg/mL
same,IL-1b in PBMC culture supernatant,PBMCs; 625 nM,60 pg/mL
same,IL-2 in PBMC culture supernatant,PBMCs; 625 nM,14 pg/mL
same,IL-4 in PBMC culture supernatant,PBMCs; 625 nM,0.6 pg/mL
same,IL-6 in PBMC culture supernatant,PBMCs; 625 nM,44 pg/mL
same,IL-8 in PBMC culture supernatant,PBMCs; 625 nM,"45,465 pg/mL"
same,IL-10 in PBMC culture supernatant,PBMCs; 625 nM,4 pg/mL
same,IL-12p70 in PBMC culture supernatant,PBMCs; 625 nM,9 pg/mL
same,TNF-α in PBMC culture supernatant,PBMCs; 625 nM,834 pg/mL
same,relative potency for platelet aggregation,platelet-rich plasma,less potent than C-232A and prostratin
same,platelet aggregation at concentrations below 10 μM,platelet-rich plasma; 20-minute stimulation,little or no aggregation
same,HIV RNA Fold over DMSO Geo.mean,[1]; 1.1 μM (Fig 10C),9.2 fold and 9 fold
same,EC50,"[1]; 72 h, read-out: HIV RNA EC50",0.296 µM
same,PK profile,"Plasma PK in rats; 1, 3, and 10 mg/kg, n = 3 male rats/group",Dose-dependent increases in the PK profile
same,more potent for PKC-ε translocation compared with PKC-η and PKC-θ,PKC-ε; A549-PKC-tGFP reporter cells,5- to 6 fold
same,more potent for PKC-ε translocation than PKC-δ,PKC-ε; A549-PKC-tGFP reporter cells,~200 fold
same,EC50,PKC-ε,0.24 µM
same,"ε selectivity, PKC-ε",PKC-ε,1
Cc1ccc(C#Cc2ccc3oc(CC(C)(C)C(=O)OCC4(CO)CC(=CCC(CC(C)C)CC(C)C)C(=O)O4)cc3c2)cc1 (stereo not shown) [C-232A],GM-CSF in PBMC culture supernatant,PBMCs; 156 nM,40 pg/mL
same,IFN-γ in PBMC culture supernatant,PBMCs; 156 nM,202 pg/mL
same,IL-1b in PBMC culture supernatant,PBMCs; 156 nM,72 pg/mL
same,IL-2 in PBMC culture supernatant,PBMCs; 156 nM,14 pg/mL
same,IL-4 in PBMC culture supernatant,PBMCs; 156 nM,0.4 pg/mL
same,IL-6 in PBMC culture supernatant,PBMCs; 156 nM,84 pg/mL
same,IL-8 in PBMC culture supernatant,PBMCs; 156 nM,"43,224 pg/mL"
same,IL-10 in PBMC culture supernatant,PBMCs; 156 nM,4.9 pg/mL
same,IL-12p70 in PBMC culture supernatant,PBMCs; 156 nM,7 pg/mL
same,TNF-α in PBMC culture supernatant,PBMCs; 156 nM,883 pg/mL
same,GM-CSF in PBMC culture supernatant,PBMCs; 625 nM,71 pg/mL
same,IFN-γ in PBMC culture supernatant,PBMCs; 625 nM,172 pg/mL
same,IL-1b in PBMC culture supernatant,PBMCs; 625 nM,125 pg/mL
same,IL-2 in PBMC culture supernatant,PBMCs; 625 nM,17 pg/mL
same,IL-4 in PBMC culture supernatant,PBMCs; 625 nM,0.6 pg/mL
same,IL-6 in PBMC culture supernatant,PBMCs; 625 nM,100 pg/mL
same,IL-8 in PBMC culture supernatant,PBMCs; 625 nM,"45,964 pg/mL"
same,IL-10 in PBMC culture supernatant,PBMCs; 625 nM,3.6 pg/mL
same,IL-12p70 in PBMC culture supernatant,PBMCs; 625 nM,9 pg/mL
same,TNF-α in PBMC culture supernatant,PBMCs; 625 nM,1424 pg/mL
same,relative potency for platelet aggregation,platelet-rich plasma,less potent than prostratin
same,platelet aggregation,"platelet-rich plasma; dilution series, 20 minutes",stimulated platelet aggregation
same,EC50,"[1]; read-out: EC50, activation of HIV expression",0.5 µM
same,PK plasma profile,"Plasma PK in rats; 0.1, 0.3, 1, and 3 mg/kg",dose-dependent C-232A PK plasma profiles
same,EC50,PKC-ε,0.058 µM
same,"ε selectivity, PKC-ε",PKC-ε,1
